Assays:
Assay type in all cases: cell-based
[1] = system: S. aureus ATCC 33591 (methicillin-resistant); experiment: broth microdilution MIC assay, S. aureus ATCC 33591; conditions: Staphylococcus aureus, ATCC 33591 / MRSA; Table 3; S. aureus 33591 (MRSA); read-out: S. aureus 33591 (MRSA) MIC
Method: (§1) To determine the ability of test compounds to potentiate the inhibition of the growth of bacterial strains, classic cell-based broth microdilution MIC assays were employed. MIC assays are performed according to CLSI methods except where otherwise noted (CLSI, 2011 and CLSI, 2009). The reference strains S. aureus ATCC 29213 (methicillin sensitive), S. aureus ATCC 33591 (methicillin-resistant), E. coli ATCC 25922 (wild-type/QC strain), P. aeruginosa ATCC 27853 (wild-type/QC strain), and the clinical isolate P. aeruginosa PA 8 were used to determine the ability of the exemplary carbapenem compounds to inhibit bacterial growth. An expanded panel of methicillin resistance S. aureus (MRSA) and Pseudomonas was also used to determine the ability of exemplary carbapenem compounds to inhibit bacterial growth across a broader representation of those species. To determine activity in MRSA and in addition to S. aureus ATCC 33591, S. aureus USA 300, USA 400 and USA 600, some of the most common clones found to cause human infection, were also used. To further gauge the impact on the carbapenem compounds due to various resistance mechanisms in Pseudomonas, the following strains were included: P. aeruginosa 35151 (hyper-permeable strain), P. aeruginosa AmexAB-OprM (an efflux pump knockout), and P. aeruginosa PA 3 (a clinical isolate of reduced carbapenem susceptibility). Briefly, cryo-preserved bacterial cultures of clinical strains are streaked for isolation on appropriate agar medium, in this case Mueller Hinton II agar. Following incubation to allow formation of colonies, these plates are sealed with parafilm and stored refrigerated for up to two weeks. For preparation of assay inocula and to ensure low variability, at least 5 colonies are picked from the agar plates with an inoculating loop and aseptically transferred to a culture tube containing 3 mL of Mueller-Hinton Broth (supplemented with divalent cations to required levels based on Manufacturers' specification). The broth culture is grown for 3-5 hours at 37° C. with shaking at 200 rpm. Meanwhile, 2-fold serial dilutions of test compounds are conducted in a 96 well plate with a final volume of 75 μL per well at 2-fold the final desired concentration. After the dilution plates are set up the growing cultures are then diluted in a cuvette containing MH II broth and the optical density is measured at 600 nm. Inocula are diluted such that 75 μL of this culture in Mueller-Hinton Broth results in a starting bacterial concentration of 5×10^5 CFU/mL when added to the dilution plates. The plates are incubated 16-20 hours at 37° C. The MIC is read visually as the lowest concentration well with no bacterial growth.
(§2) Representative results are shown in Tables 3, 4, and 5 where A represents an MIC>32 μg/mL, B represents an MIC between 8 and 32 μg/mL inclusive, C represents an MIC between 1 and 4 μg/mL inclusive, and D represents an MIC of <1 μg/mL. NT=Not Tested.

[2] = system: E. coli ATCC 25922 (wild-type/QC strain); experiment: broth microdilution MIC assay, E. coli ATCC 25922; conditions: Escherichia coli, ATCC25922; Table 3; E. coli 25922; read-out: E. coli 25922 MIC
Method: as §1, §2

[3] = system: P. aeruginosa ATCC 27853 (wild-type/QC strain); experiment: broth microdilution MIC assay, P. aeruginosa ATCC 27853; conditions: Pseudomonas aeruginosa, ATCC27853; Table 3; P. aeruginosa 27853; read-out: P. aeruginosa 27853 MIC
Method: as §1, §2

[4] = system: clinical isolate P. aeruginosa PA 8; experiment: broth microdilution MIC assay, P. aeruginosa PA 8; conditions: Pseudomonas aeruginosa; Table 3; P. aeruginosa PA8
Method: as §1, §2

| Compound | MIC [1] | MIC [2] | MIC [3] | MIC [4] |
| --- | --- | --- | --- | --- |
| C[C@@H](O)[C@H]1C(=O)N2C(C(=O)O)=C(S[C@@H]3CCN(C4CCC(NCCCB(O)O)CC4)C3)[C@H](C)[C@H]12 (stereo partly drawn) [Example 3, (4R,5S,6S)-3-(((R)-1-(4-((3-boronopropyl)amino)cyclohexyl)pyrrolidin-3-yl)thio)-6-((R)-1-hydroxyethyl)-4-methyl-7-oxo-1-azabicyclo[3.2.0]hept-2-ene-2-carboxylic acid] | 8 to 32 µg/mL | < 1 µg/mL | 8 to 32 µg/mL | 8 to 32 µg/mL |
| C[C@@H](O)[C@H]1C(=O)N2C(C(=O)O)=C(S[C@@H]3CCN(C[C@H]4CC[C@H](CN)CC4)C3)[C@H](C)[C@H]12 [Example 17, (4R,5S,6S)-3-(((R)-1-(((1r,4R)-4-(aminomethyl)cyclohexyl)methyl)pyrrolidin-3-yl)thio)-6-((R)-1-hydroxyethyl)-4-methyl-7-oxo-1-azabicyclo[3.2.0]hept-2-ene-2-carboxylic acid] | 8 to 32 µg/mL | < 1 µg/mL | 1 to 4 µg/mL | 1 to 4 µg/mL |
| CNC[C@H]1CC[C@H](CN2CC[C@@H](SC3=C(C(=O)O)N4C(=O)[C@H]([C@@H](C)O)[C@H]4[C@H]3C)C2)CC1 [Example 18, (4R,5S,6S)-6-((R)-1-hydroxyethyl)-4-methyl-3-(((R)-1-(((1r,4R)-4-((methylamino)methyl)cyclohexyl)methyl)pyrrolidin-3-yl)thio)-7-oxo-1-azabicyclo[3.2.0]hept-2-ene-2-carboxylic acid] | 8 to 32 µg/mL | < 1 µg/mL | 1 to 4 µg/mL | 1 to 4 µg/mL |
| C[C@@H](O)[C@H]1C(=O)N2C(C(=O)O)=C(S[C@@H]3CCN(CCN4CCNCC4)C3)[C@H](C)[C@H]12 [Example 20, (4R,5S,6S)-6-((R)-1-hydroxyethyl)-4-methyl-7-oxo-3-(((R)-1-(2-(piperazin-1-yl)ethyl)pyrrolidin-3-yl)thio)-1-azabicyclo[3.2.0]hept-2-ene-2-carboxylic acid] | 8 to 32 µg/mL | < 1 µg/mL | 1 to 4 µg/mL | 1 to 4 µg/mL |
| CN[C@H]1CC[C@H](CN2CC[C@@H](SC3=C(C(=O)O)N4C(=O)[C@H]([C@@H](C)O)[C@H]4[C@H]3C)C2)CC1 [Example 21, (4R,5S,6S)-6-((R)-1-hydroxyethyl)-4-methyl-3-(((R)-1-(((1r,4R)-4-(methylamino)cyclohexyl)methyl)pyrrolidin-3-yl)thio)-7-oxo-1-azabicyclo[3.2.0]hept-2-ene-2-carboxylic acid] | 8 to 32 µg/mL | < 1 µg/mL | 1 to 4 µg/mL | 1 to 4 µg/mL |
| C[C@@H](O)[C@H]1C(=O)N2C(C(=O)O)=C(S[C@@H]3CCN([C@H]4CC[C@@H](N)CC4)C3)[C@H](C)[C@H]12 [Example 23, (4R,5S,6S)-3-(((R)-1-((1r,4R)-4-aminocyclohexyl)pyrrolidin-3-yl)thio)-6-((R)-1-hydroxyethyl)-4-methyl-7-oxo-1-azabicyclo[3.2.0]hept-2-ene-2-carboxylic acid] | 8 to 32 µg/mL | < 1 µg/mL | 1 to 4 µg/mL | 1 to 4 µg/mL |
| CC(C1CCNCC1)N1CC[C@@H](SC2=C(C(=O)O)N3C(=O)[C@H]([C@@H](C)O)[C@H]3[C@H]2C)C1 (stereo partly drawn) [Example 25, (4R,5S,6S)-6-((R)-1-hydroxyethyl)-4-methyl-7-oxo-3-(((3R)-1-(1-(piperidin-4-yl)ethyl)pyrrolidin-3-yl)thio)-1-azabicyclo[3.2.0]hept-2-ene-2-carboxylic acid] | 8 to 32 µg/mL | < 1 µg/mL | 8 to 32 µg/mL | 1 to 4 µg/mL |
| C[C@@H](O)[C@H]1C(=O)N2C(C(=O)O)=C(S[C@@H]3CCN(CC4CCN(CCN)CC4)C3)[C@H](C)[C@H]12 [Example 26, (4R,5S,6S)-3-(((R)-1-((1-(2-aminoethyl)piperidin-4-yl)methyl)pyrrolidin-3-yl)thio)-6-((R)-1-hydroxyethyl)-4-methyl-7-oxo-1-azabicyclo[3.2.0]hept-2-ene-2-carboxylic acid] | > 32 µg/mL | < 1 µg/mL | 1 to 4 µg/mL | 1 to 4 µg/mL |
| C[C@@H](O)[C@H]1C(=O)N2C(C(=O)O)=C(S[C@@H]3CCN(C4CCN(CCN)CC4)C3)[C@H](C)[C@H]12 [Example 27, (4R,5S,6S)-3-(((R)-1-(1-(2-aminoethyl)piperidin-4-yl)pyrrolidin-3-yl)thio)-6-((R)-1-hydroxyethyl)-4-methyl-7-oxo-1-azabicyclo[3.2.0]hept-2-ene-2-carboxylic acid] | 8 to 32 µg/mL | < 1 µg/mL | 1 to 4 µg/mL | 1 to 4 µg/mL |
| CC1CC(CN2CC[C@@H](SC3=C(C(=O)O)N4C(=O)[C@H]([C@@H](C)O)[C@H]4[C@H]3C)C2)CCN1 (stereo partly drawn) [Example 28, (4R,5S,6S)-6-((R)-1-hydroxyethyl)-4-methyl-3-(((3R)-1-((2-methylpiperidin-4-yl)methyl)pyrrolidin-3-yl)thio)-7-oxo-1-azabicyclo[3.2.0]hept-2-ene-2-carboxylic acid] | 8 to 32 µg/mL | < 1 µg/mL | 8 to 32 µg/mL | 1 to 4 µg/mL |
| CNCc1ccc(CN2CC[C@@H](SC3=C(C(=O)O)N4C(=O)[C@H]([C@@H](C)O)[C@H]4[C@H]3C)C2)cn1 [Example 29, (4R,5S,6S)-6-((R)-1-hydroxyethyl)-4-methyl-3-(((R)-1-((6-((methylamino)methyl)pyridin-3-yl)methyl)pyrrolidin-3-yl)thio)-7-oxo-1-azabicyclo[3.2.0]hept-2-ene-2-carboxylic acid] | 8 to 32 µg/mL | < 1 µg/mL | 8 to 32 µg/mL | 1 to 4 µg/mL |
| C[C@@H](O)[C@H]1C(=O)N2C(C(=O)O)=C(S[C@@H]3CCN(CC4CCNC(CN)C4)C3)[C@H](C)[C@H]12 (stereo partly drawn) [Example 30, (4R,5S,6S)-3-(((3R)-1-((2-(aminomethyl)piperidin-4-yl)methyl)pyrrolidin-3-yl)thio)-6-((R)-1-hydroxyethyl)-4-methyl-7-oxo-1-azabicyclo[3.2.0]hept-2-ene-2-carboxylic acid] | 8 to 32 µg/mL | < 1 µg/mL | 8 to 32 µg/mL | 1 to 4 µg/mL |
| C[C@@H](O)[C@H]1C(=O)N2C(C(=O)O)=C(S[C@@H]3CCN(Cc4ccc(CN)c(CN)c4)C3)[C@H](C)[C@H]12 [Example 31, (4R,5S,6S)-3-(((R)-1-(3,4-bis(aminomethyl)benzyl)pyrrolidin-3-yl)thio)-6-((R)-1-hydroxyethyl)-4-methyl-7-oxo-1-azabicyclo[3.2.0]hept-2-ene-2-carboxylic acid] | 1 to 4 µg/mL | < 1 µg/mL | 8 to 32 µg/mL | 8 to 32 µg/mL |
| C[C@@H](O)[C@H]1C(=O)N2C(C(=O)O)=C(S[C@@H]3CCN(CC4CNCCN4S(C)(=O)=O)C3)[C@H](C)[C@H]12 (stereo partly drawn) [Example 32, (4R,5S,6S)-6-((R)-1-hydroxyethyl)-4-methyl-3-(((3R)-1-((1-(methylsulfonyl)piperazin-2-yl)methyl)pyrrolidin-3-yl)thio)-7-oxo-1-azabicyclo[3.2.0]hept-2-ene-2-carboxylic acid] | 8 to 32 µg/mL | 8 to 32 µg/mL | 8 to 32 µg/mL | 8 to 32 µg/mL |
| C[C@@H](O)[C@H]1C(=O)N2C(C(=O)[O-])=C(S[C@@H]3CC[N+](C)(CC4CCNCC4)C3)[C@H](C)[C@H]12 (stereo partly drawn) [Example 33, (4R,5S,6S)-6-((R)-1-hydroxyethyl)-4-methyl-3-(((3R)-1-methyl-1-(piperidin-4-ylmethyl)pyrrolidin-1-ium-3-yl)thio)-7-oxo-1-azabicyclo[3.2.0]hept-2-ene-2-carboxylate] | 8 to 32 µg/mL | < 1 µg/mL | 1 to 4 µg/mL | 1 to 4 µg/mL |
